Results taken from ChEMBL document CHEMBL5113455, “Discovery of benzyloxyphenyl- and phenethylphenyl-imidazole derivatives as a new class of ante-drug type boosters” (Bioorg Med Chem Lett, 2022).

Assays:
[1] = test system: CYP3A4; assay: in vitro; details: rat
[2] = Drug metabolism in rat liver microsome assessed as metabolite 4-[(4-imidazol-1-ylphenoxy)methyl]benzoic acid formation at 10 uM and measured upto 30 mins by liquid chromatography-tandem mass spectrometry; assay type: ADME; details: microsomes, 0.5 h
[3] = rat liver microsomes, probe midazolam

SMILES	inhibition at 10 min, 10 µM [1, 3] [%]	also measured
Nn1nnc2ccccc21	80.8	
CCCOC(=O)c1ccc(COc2ccc(-n3ccnc3)cc2)cc1	42.6	
COC(=O)c1ccc(CCc2ccc(-n3ccnc3)cc2)cc1	82.8	
O=C(O)c1ccc(CCc2ccc(-n3ccnc3)cc2)cc1	15.5	
OCCOc1ccc(-n2ccnc2)cc1	6.7	
CC(=O)OCCOc1ccc(-n2ccnc2)cc1	34.7	
O=C(OCC(F)(F)F)c1ccc(COc2ccc(-n3ccnc3)cc2)cc1	10.4	
CCCOC(=O)c1ccc(CCc2ccc(-n3ccnc3)cc2)cc1	90.4	
COC(=O)c1ccc(COc2ccc(-n3ccnc3)cc2)cc1	72	Drug metabolism [2]: Metabolite_Detected
N#Cc1ccc(COc2ccc(-n3ccnc3)cc2)cc1	88.1	
O=C(O)c1ccc(COc2ccc(-n3ccnc3)cc2)cc1	15.5	
CCOC(=O)COc1ccc(-n2ccnc2)cc1	12.7	
CCC(C)COC(=O)c1ccc(COc2ccc(-n3ccnc3)cc2)cc1 (centres undefined)	58.4	
CCOC(=O)c1ccc(CCc2ccc(-n3ccnc3)cc2)cc1	74	
CC(=O)OCc1ccc(COc2ccc(-n3ccnc3)cc2)cc1	87.1	
CCCCCCOC(=O)c1ccc(COc2ccc(-n3ccnc3)cc2)cc1	72.2	
O=C(OCCc1ccccc1)c1ccc(COc2ccc(-n3ccnc3)cc2)cc1	61.8	
CCCCOC(=O)c1ccc(COc2ccc(-n3ccnc3)cc2)cc1	39.9	
O=C(Oc1ccc(-n2ccnc2)cc1)c1ccc(C(F)(F)F)cc1	15.6	
OCc1ccc(COc2ccc(-n3ccnc3)cc2)cc1	84.7	
c1ccc(COc2ccc(-n3ccnc3)cc2)cc1	82.5	
O=C(Oc1ccc(-n2ccnc2)cc1)c1ccc(Cl)cc1	16.5	
CC(=O)N1CCN(c2ccc(OCC3COC(Cn4ccnc4)(c4ccc(Cl)cc4Cl)O3)cc2)CC1 (centres undefined) [KETOCONAZOLE]		inhibition at 10 min, 10 µM ([1]; microsomes): 94.4%
